Measurements from PubChem BioAssay AID1918995 (Molecular Pharmacology Branch, DTP, NCI, 2023).

Tested on: 324938-238-R-J1-PDC complex spheroid growth, % test/control
Test: Anticancer human tumor 324938-238-R-J1-PDC patient-derived bladder carcinoma cell line growth inhibition [AhR]
Conditions: for IC50: curve of first compound; for viability, T/C: stronger effect = lower value
Description: Multicellular complex tumor spheroid response to aryl hydrocarbon receptor antagonists in combination with a variety of drugs and investigational agents in selected tumor cell lines
The current study was undertaken to assess response to aryl hydrocarbon receptor antagonists in combination with standard-of-care drugs and investigational agents in solid tumor complex spheroid models. Complex spheroids include a stromal component modeled by human endothelial cells (HUVEC) and fibroblasts modeled by human mesenchymal stem cells (MSCs). The concentration ranges selected for each drug and investigational agent were based upon clinically achievable concentrations if the clinical Cmax of the agent was known.
Compounds. The drugs and investigational agents: BAY 2416964 (NSC825713), GNF351 (NSC835774), CH-223191 (NSC835775), CPI-455 (NSC825282), aza-TdCyd (NSC777586), decitabine (NSC127716), belinostat (NSC758774), entinostat (NSC756642), pevonedistat (NSC761192), tazemetostat (NSC777109), talazoparib (NSC765396), olaparib (NSC753686), selinexor (NSC780203), nedisertib (M3814, NSC802822), bortezomib (NSC756655), venetoclax (NSC766270), doxorubicin (NSC123127), elimusertib (BAY189344, NSC800525), ceralasertib (AZD6738, NSC777638), TAK-243 (NSC785004), alisertib (NSC759677), etoposide (NSC141540), topotecan (NSC609699), eribulin (NSC707389), gemcitabine (NSC613327), carboplatin (NSC241240), cisplatin (NSC119875), and SN-38 (NSC673596) were obtained from the National Cancer Institute (NCI) Developmental Therapeutics Program Chemical Repository (32). The FDA-approved anticancer drug set is available from the Developmental Therapeutics Program at https://dtp.cancer.gov/organization/dscb/obtaining/available plates.htm. […] The stock solutions were prepared in dimethyl sulfoxide (DMSO, Sigma-Aldrich, St. Louis, MO, cat. D2650), except for the platinum compounds which were prepared in saline (Quality Biological, Gaithersburg, MD, cat. 114-055-101), at 800-fold the tested concentration and stored at -70 degrees C prior to their use. All drugs and investigational agents were tested over a range starting from a high concentration at or near the clinical Cmax and decreasing in half-log increments. If the clinical Cmax for an agent had not been determined, the highest concentration tested was 10 microM (Table 1).
Cell Culture. All cells were maintained in an incubator at 37 degrees C and 5% CO2 with 95% humidity. The PDC lines were cultured according to standard operating procedures established by the NCI PDMR (https://pdmr.cancer.gov). Briefly, all PDCs were thawed and cultured in Matrigel-coated flasks prepared with a working solution of 1X Ham's F-12 nutrient mix, without supplementation (Invitrogen, Waltham, MA, cat. 11765054), 100 U/mL penicillin-streptomycin (Invitrogen, cat. 15140122), and 2.5% Matrigel (Corning Inc., Corning, NY, cat. 354248) for the first three passages. All PDCs were cultured in complete DMEM/F-12 media containing advanced DMEM/F-12 (Invitrogen, cat. 12634028), 4.9% defined fetal bovine serum, heat inactivated (HyClone Laboratories Inc., Logan, UT, cat. SH30070.03HI), 389 ng/mL hydrocortisone (Sigma-Aldrich, cat. H4001), 9.7 ng/mL human EGF recombinant protein (Invitrogen, cat. PHG0313), 23.4 microg/mL adenine (Sigma-Aldrich, cat. A2786), 97.3 U/mL penicillin-streptomycin (Invitrogen, cat. 15140122), 1.9 mM L-glutamine (Invitrogen, cat. 25030081), and 9.7 microM Y-27632 dihydrochloride (Tocris Bioscience, Bristol, United Kingdom, cat. 1254). The PDCs were cultured in complete DMEM/F12 media without 10 microM Y-27632 dihydrochloride for at least two passages prior to the screen. The established cell lines NCI-H1341 and […] were cultured in DMEM/F-12, HEPES (Invitrogen, cat. 11330032), 5% defined fetal bovine serum (HyClone Laboratories Inc., cat. SH30070.03), ITS premix universal culture supplement [insulin (5 microg/mL), transferrin (5 microg/mL), and selenious acid (5 ng/mL)] […]

[1] = second compound 0.1 µM, first compound 0.0316 µM
[2] = second compound 0.1 µM, first compound 0.1 µM
[3] = second compound 0.1 µM, first compound 0.316 µM
[4] = second compound 0.1 µM, first compound 1 µM
[5] = second compound 0.1 µM, first compound 3.16 µM
[6] = second compound 0.1 µM, first compound 10 µM
[7] = second compound 0.316 µM, first compound 0.0316 µM
[8] = second compound 0.316 µM, first compound 0.1 µM
[9] = second compound 0.316 µM, first compound 0.316 µM
[10] = second compound 0.316 µM, first compound 1 µM
[11] = second compound 0.316 µM, first compound 3.16 µM
[12] = second compound 0.316 µM, first compound 10 µM
[13] = second compound 1 µM, first compound 0.0316 µM
[14] = second compound 1 µM, first compound 0.1 µM
[15] = second compound 1 µM, first compound 0.316 µM
[16] = second compound 1 µM, first compound 1 µM
[17] = second compound 1 µM, first compound 3.16 µM
[18] = second compound 1 µM, first compound 10 µM
[19] = second compound 3.16 µM, first compound 0.0316 µM
[20] = second compound 3.16 µM, first compound 0.1 µM
[21] = second compound 3.16 µM, first compound 0.316 µM
[22] = second compound 3.16 µM, first compound 1 µM
[23] = second compound 3.16 µM, first compound 3.16 µM
[24] = second compound 3.16 µM, first compound 10 µM
[25] = second compound 10 µM, first compound 0.0316 µM
[26] = second compound 10 µM, first compound 0.1 µM
[27] = second compound 10 µM, first compound 0.316 µM
[28] = second compound 10 µM, first compound 1 µM
[29] = second compound 10 µM, first compound 3.16 µM
[30] = second compound 10 µM, first compound 10 µM
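Note: spheroids exposed to agents for seven days before viability read.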

## NS(=O)(=O)OCC1CC(n2ccc3c(NC4CCc5ccccc54)ncnc32)CC1O (stereo not given) + CC(CO)NC(=O)c1cc(-c2ccc(Cl)cc2)nn(-c2cnn(C)c2)c1=O
Second compound 0.1 µM
  IC50: 534 nM
Second compound 0.316 µM
  IC50: 558 nM
Second compound 1 µM
  IC50: 586 nM
Second compound 3.16 µM
  IC50: 450 nM
Second compound 10 µM
  IC50: 379 nM
[1]
  viability, T/C: 90.3%
[2]
  viability, T/C: 96.4%
[3]
  viability, T/C: 66.8%
[4]
  viability, T/C: 31.1%
[5]
  viability, T/C: 25.3%
[6]
  viability, T/C: 28.9%
[7]
  viability, T/C: 88.5%
[8]
  viability, T/C: 101%
[9]
  viability, T/C: 64%
[10]
  viability, T/C: 37.3%
[11]
  viability, T/C: 21.9%
[12]
  viability, T/C: 27.1%
[13]
  viability, T/C: 77.1%
[14]
  viability, T/C: 82.2%
[15]
  viability, T/C: 64.1%
[16]
  viability, T/C: 38.2%
[17]
  viability, T/C: 22.9%
[18]
  viability, T/C: 29.1%
[19]
  viability, T/C: 69.9%
[20]
  viability, T/C: 67.8%
[21]
  viability, T/C: 55.4%
[22]
  viability, T/C: 37.3%
[23]
  viability, T/C: 27.5%
[24]
  viability, T/C: 26.9%
[25]
  viability, T/C: 61.5%
[26]
  viability, T/C: 58.6%
[27]
  viability, T/C: 51.5%
[28]
  viability, T/C: 40.8%
[29]
  viability, T/C: 29.1%
[30]
  viability, T/C: 30.5%

## COc1cc(Nc2ncc3c(n2)-c2ccc(Cl)cc2C(c2c(F)cccc2OC)=NC3)ccc1C(=O)O + CC(CO)NC(=O)c1cc(-c2ccc(Cl)cc2)nn(-c2cnn(C)c2)c1=O
Second compound 0.1 µM
  IC50: 76.2 nM
Second compound 0.316 µM
  IC50: 79.1 nM
Second compound 1 µM
  IC50: 72.8 nM
Second compound 3.16 µM
  IC50: < 31.6 nM
Second compound 10 µM
  IC50: < 31.6 nM
[1]
  viability, T/C: 77%
[2]
  viability, T/C: 41.7%
[3]
  viability, T/C: 23.5%
[4]
  viability, T/C: 23.6%
[5]
  viability, T/C: 24.7%
[6]
  viability, T/C: 31%
[7]
  viability, T/C: 71.7%
[8]
  viability, T/C: 44.5%
[9]
  viability, T/C: 27.4%
[10]
  viability, T/C: 25.4%
[11]
  viability, T/C: 23.8%
[12]
  viability, T/C: 30.1%
[13]
  viability, T/C: 60.1%
[14]
  viability, T/C: 46.1%
[15]
  viability, T/C: 27.6%
[16]
  viability, T/C: 28.6%
[17]
  viability, T/C: 26.9%
[18]
  viability, T/C: 29.2%
[19]
  viability, T/C: 49.4%
[20]
  viability, T/C: 42.5%
[21]
  viability, T/C: 30%
[22]
  viability, T/C: 25.7%
[23]
  viability, T/C: 28.2%
[24]
  viability, T/C: 29.8%
[25]
  viability, T/C: 54.7%
[26]
  viability, T/C: 40.4%
[27]
  viability, T/C: 32.8%
[28]
  viability, T/C: 34.9%
[29]
  viability, T/C: 31.9%
[30]
  viability, T/C: 39.7%
